# Source: patent publication US9926529B2, “Derivation of neural stem cells and dopaminergic neurons from human pluripotent stem cells” (International Stem Cell Corporation, priority 2012, dated 2018)
# Where a name gives a salt, the structure may show the parent alone. Read-outs that look alike come from different tables or passages of the source.
# Tested on: hPSC-NSCs
# Experiment: RT-PCR expression of dopamine neuron genes in hPSC-NSCs treated with small molecule hits
# Assay type: cell-based, human
# Conditions: for fold induction at 2.5 µM: Homo sapiens, Neuron, 336 h
# Protocol: The method specifically involved treating both hESC-H9-NSCs (Invitrogen) and hPSC-NSCs with Purmorphamine (2 μM) and FGF8 (100 ng/mL) in NB medium [NeuroBasal medium, 1× GlutaMAX, 1× N2/B27 Supplement (Invitrogen)] for 7 days. After 7 days of Purmorphamine and FGF8 treatment, the NSCs were dissociated with Accutase (Sigma) and plated 20,000 cells/mL into Matrigel coated 96 well plates and treated with small molecule library (Torcris 1120 Biologically Active Compounds) at 2.5 μM final concentration for two weeks (FIG. 6A). Two weeks after treatment with small molecules, all wells were visually observed and scored based on neurite density and dopamine release. For measuring neurite density, cells were fixed with 4% paraformaldehyde and phase contrast images were acquired using Cellavista Cell Imaging System (Roche Applied Science) from randomly selected fields. Neurite density was measured using the Cellavista density software image processing program. Each experimental condition was done in duplicate wells, and at least three independent experiments were conducted to acquire the final results.
# Conditioned medium from the top neurite inducers (Table 1) (wells containing the highest density of neurites compare to control 0.1% DMSO treated) were collected and analyzed using a dopamine ELISA assay (Cosmo Bio). Conditioned medium was collected from samples containing 50,000 cells per well and centrifuged at 3000 RPM to remove cell debris. Supernatant was then collected and analyzed for quantitative determination of dopamine using a commercial dopamine ELISA assay kit (CusaCosmo Bio). Data analysis was performed using the microtiter plate reader (BIO-TEK Synergy 2). The results presented are from three independent experiments (n=3) and represented as mean±standard error of mean (s.e.m.) and statistical analysis was performed using the two-tailed Student's t-test with a confidence level of 95% (α=0.05) with statistical significance of P<0.05. Additionally, total RNA from each well were collected and analyze by RT-PCR for expression of TuJ1, MAP2, TH, GRK2, EN1, DAT, AADC, PAX2, NURR1, PITX3 and LMX1B from hPSC-NSCs (Table 2). […] Analysis of the ELISA data indicated the top small molecule neurite inducers produced higher levels of dopamine than control non-treated cells (1.5 ng/mL). […] The percentages of TH positive cells produced by chemical treatment with Kenpaullone (33%), Guggulsterone (35%), Kynurenic Acid (19%), Immedthridine Dihydrobromide (21%), and Dimaprit Dihydrochloride (18%) were higher than 15% of TH positive cells obtained from hPSC-NSCs differentiated for ≥1 month using a standard dopaminergic differentiation medium (BDNF 20 ng/mL, GDNF 20 ng/mL, cAMP 200 μM, Abscorbic Acid 200 μM, TGFβ3 2 ng/mL and DAPT).
# Total RNA from at least triplicate samples with around 1 million cells each was isolated using either QIAsymphony automatic purification system or RNeasy Plus Mini kit, according to manufacturer's instructions (Qiagen). Total RNA was used for reverse transcription with the iScript cDNA synthesis kit (Biorad) and Px2 Thermal Cycler (Thermo Scientific). To analyze gene expression, PCR reactions were performed in duplicate using 1/25-th of the cDNA per reaction and the QuantiTect Primer Assay and Quantitest SYBR Green master mix (Qiagen). qPCR was performed using the Rotor-Gene Q (Qiagen) 5 min at 95° C., 5 s at 92° C., and 20 s at 60° C. for 37 cycles followed by melt to check the specificity of the amplicons from 50 to 99° C. raising by 1° C. each step. Relative quantification was performed against a standard curve and quantified values were normalized against the input determined by PPIG. The primers used for the analysis are listed in Supplementary Table S1. […]
# [1] = hPSC-NSCs primed 7 days with Purmorphamine and FGF8, small molecule 2.5 μM for two weeks
# [2] = hPSC-NSCs primed 7 days with Purmorphamine and FGF8, small molecule 2.5 μM for two weeks, read-out: DDC (AADC) expression by RT-PCR
# [3] = hPSC-NSCs primed 7 days with Purmorphamine and FGF8, small molecule 2.5 μM for two weeks, read-out: EN1 expression by RT-PCR
# [4] = hPSC-NSCs primed 7 days with Purmorphamine and FGF8, small molecule 2.5 μM for two weeks, read-out: KCNJ6 expression by RT-PCR
# [5] = hPSC-NSCs primed 7 days with Purmorphamine and FGF8, small molecule 2.5 μM for two weeks, read-out: LMX1B expression by RT-PCR
# [6] = hPSC-NSCs primed 7 days with Purmorphamine and FGF8, small molecule 2.5 μM for two weeks, read-out: MAP2 expression by RT-PCR
# [7] = hPSC-NSCs primed 7 days with Purmorphamine and FGF8, small molecule 2.5 μM for two weeks, read-out: NR4A2 (NURR1) expression by RT-PCR
# [8] = hPSC-NSCs primed 7 days with Purmorphamine and FGF8, small molecule 2.5 μM for two weeks, read-out: PITX3 expression by RT-PCR
# [9] = hPSC-NSCs primed 7 days with Purmorphamine and FGF8, small molecule 2.5 μM for two weeks, read-out: Pax2 expression by RT-PCR
# [10] = hPSC-NSCs primed 7 days with Purmorphamine and FGF8, small molecule 2.5 μM for two weeks, read-out: TH1 expression by RT-PCR
# [11] = hPSC-NSCs primed 7 days with Purmorphamine and FGF8, small molecule 2.5 μM for two weeks, read-out: Tubb3 expression by RT-PCR
# [12] = hPSC-NSCs primed 7 days with Purmorphamine and FGF8, small molecule 2.5 μM for two weeks, read-out: SLC6A3 (DAT) expression by RT-PCR
Structure (SMILES),DDC (AADC) expression by RT-PCR [1],EN1 expression by RT-PCR [1],KCNJ6 (GRK2) expression by RT-PCR [1],LMX1B expression by RT-PCR [1],MAP2 expression by RT-PCR [1],NR4A2 (NURR1) expression by RT-PCR [1],PITX3 expression by RT-PCR [1],Pax2 expression by RT-PCR [1],SLC6A3 (DAT) expression by RT-PCR [1],TH1 expression by RT-PCR [1],Tubb3 expression by RT-PCR [1],further results
Cc1cc(C(=O)O)sc1C(N)C(=O)O (stereo not drawn) [3-MATIDA],80.55,7.3,1.21,2.99,10.7,3.06,0.46,0.65,1.42,5.1,3.74,
Br.CCCN(CCC)C1CCc2cccc(O)c2C1 (stereo not drawn) [8-Hydroxy-DPAT hydrobromide],124.29,11.69,0.9,5.42,14.43,7.66,,1.25,19.9,7.32,7.8,
N[C@@H]1CCN(O)C1=O [(R)-(+)-HA-966],104.03,7.26,1.02,3.94,10.66,3.91,0.23,4.7,26.39,6.75,5.61,
Cc1nnc2ccc(-c3cccc(C(F)(F)F)c3)nn12 [CL 218872],8.73,5.69,0.43,2.52,8.94,1.79,0.08,0.09,0.98,13.89,4.3,
Nc1nc(Nc2ccccc2)nc2c1ncn2[C@@H]1O[C@H](CO)[C@@H](O)[C@H]1O [CV 1808],16.69,5.56,0.36,,8.66,1.56,0.7,,0.94,12.51,3.86,
CCCC[C@@H](C=O)NC(=O)[C@H](CC(C)C)NC(=O)OCc1ccccc1 [Calpeptin],,,,,,,,,,,,fold induction at 2.5 µM (read-out: SLC6A3 (DAT) expression by RT-PCR): 6.57; fold induction at 2.5 µM [2]: 295; fold induction at 2.5 µM [3]: 6.93; fold induction at 2.5 µM [4]: 4.43; fold induction at 2.5 µM [5]: 2.9; fold induction at 2.5 µM [6]: 12.9; fold induction at 2.5 µM [7]: 2.45; fold induction at 2.5 µM [8]: 0.37; fold induction at 2.5 µM [9]: 3.54; fold induction at 2.5 µM [10]: 15.2; fold induction at 2.5 µM [11]: 6.1
CC(C)(C)c1cc(C(=O)/C=C/c2ccc(C(=O)O)cc2)cc(C(C)(C)C)c1 [Ch 55],22.86,11.61,0.25,1.54,5.25,77.93,0.13,0.06,0.11,1.19,3.48,
O=S(=O)(c1cccc2cnccc12)N1CCCNCC1 [Fasudil hydrochloride],,,,,,,,,,,,fold induction at 2.5 µM [2]: 32.4; fold induction at 2.5 µM [3]: 8.69; fold induction at 2.5 µM [4]: 1.57; fold induction at 2.5 µM [5]: 3.5; fold induction at 2.5 µM [6]: 11.6; fold induction at 2.5 µM [7]: 4.53; fold induction at 2.5 µM [8]: 0.27; fold induction at 2.5 µM [9]: 0.27; fold induction at 2.5 µM [12]: 2.79; fold induction at 2.5 µM [10]: 5.53; fold induction at 2.5 µM [11]: 5.67
O=C(O)Cc1cccnc1C(=O)O [Homoquinolinic acid],20.19,4.83,1.76,2.32,10.03,1.99,0.4,0.05,19.18,10.77,2.95,
"Cl.O=C(O)COc1ccc(OCCNC[C@H](O)COc2ccccc2)cc1 [ICI 215,001 hydrochloride]",29.34,8.52,1.48,4.79,11.2,2.88,,39.43,1.77,6.04,5.54,
N[C@@H](CS(=O)O)C(=O)O [L-Cysteinesulfinic acid],17.27,5.76,3.02,2.66,9.52,2.02,,0.22,1.54,7.84,3.41,
c1ccc(-c2[nH]ncc2-c2ccnc3ccccc23)nc1 [LY 364947],64.48,7.42,1.09,,10.48,3.01,,,5.08,5.23,4.23,
O=C1N(c2ccccc2)c2ccccc2C1(Cc1ccncc1)Cc1ccncc1 [Linopirdine dihydrochloride],,,,,,,,,,,,fold induction at 2.5 µM [2]: 7.02; fold induction at 2.5 µM [3]: 4.06; fold induction at 2.5 µM [4]: 0.16; fold induction at 2.5 µM [5]: 2.84; fold induction at 2.5 µM [6]: 7.02; fold induction at 2.5 µM [7]: 0.69; fold induction at 2.5 µM [8]: 0.26; fold induction at 2.5 µM [9]: 0.3; fold induction at 2.5 µM [12]: 0.28; fold induction at 2.5 µM [10]: 8.61; fold induction at 2.5 µM [11]: 3.74
